{
  "source": "BindingDB's records for doi:10.1021/jm0209984",
  "about": "(Universit&#224, 2003)",
  "data": [
    {"assay": "Concentration required to achieve 50% protection of MT-4 cell from the HIV-1 induced cytopathogenicity was determined by the MTT method", "units": {"EC50": "µM"}, "values": [
      {"smiles": "O=C(c1ccc(Cl)cc1Cl)N(C(=S)OCCOc1ccccc1)c1ccccc1", "note": "[(2,4-Dichloro-benzoyl)-phenyl-thiocarbamic acid O-(2-phenoxy-ethyl) ester]", "EC50": 11.6},
      {"smiles": "O=C1c2ccccc2C(=O)N1CCOC(=S)N(C(=O)c1cccs1)c1ccccc1Cl", "note": "[(2-Chloro-phenyl)-(thiophene-2-carbonyl)-thiocarbamic acid O-[2-(1,3-dioxo-1,3-dihydro-isoindol-2-yl)-ethyl] ester]", "EC50": 11},
      {"smiles": "CCc1ccccc1N(C(=O)c1cccs1)C(=S)OCCN1C(=O)c2ccccc2C1=O", "note": "[(2-Ethyl-phenyl)-(thiophene-2-carbonyl)-thiocarbamic acid O-[2-(1,3-dioxo-1,3-dihydro-isoindol-2-yl)-ethyl] ester]", "EC50": 11},
      {"smiles": "COc1ccccc1N(C(=O)c1cccs1)C(=S)OCCN1C(=O)c2ccccc2C1=O", "note": "[(2-Methoxy-phenyl)-(thiophene-2-carbonyl)-thiocarbamic acid O-[2-(1,3-dioxo-1,3-dihydro-isoindol-2-yl)-ethyl] ester]", "EC50": 11},
      {"smiles": "CC(COc1ccccc1)OC(=S)N(C(=O)COc1ccccc1)c1ccccc1", "note": "(stereo unspecified) [(2-Phenoxy-acetyl)-phenyl-thiocarbamic acid O-(1-methyl-2-phenoxy-ethyl) ester]", "EC50": 1.4},
      {"smiles": "O=C(COc1ccccc1)N(C(=S)OCCOc1ccccc1)c1ccccc1", "note": "[(2-Phenoxy-acetyl)-phenyl-thiocarbamic acid O-(2-phenoxy-ethyl) ester]", "EC50": 6},
      {"smiles": "O=C(c1cc(Cl)cc(Cl)c1)N(C(=S)OCCOc1ccccc1)c1ccccc1", "note": "[(3,5-Dichloro-benzoyl)-phenyl-thiocarbamic acid O-(2-phenoxy-ethyl) ester]", "EC50": 8.8},
      {"smiles": "CC(=O)c1cccc(N(C(=O)c2cccs2)C(=S)OCCN2C(=O)c3ccccc3C2=O)c1", "note": "[(3-Acetyl-phenyl)-(thiophene-2-carbonyl)-thiocarbamic acid O-[2-(1,3-dioxo-1,3-dihydro-isoindol-2-yl)-ethyl] ester]", "EC50": 6},
      {"smiles": "O=C1c2ccccc2C(=O)N1CCOC(=S)N(C(=O)c1cccs1)c1cccc(Br)c1", "note": "[(3-Bromo-phenyl)-(thiophene-2-carbonyl)-thiocarbamic acid O-[2-(1,3-dioxo-1,3-dihydro-isoindol-2-yl)-ethyl] ester]", "EC50": 1.2},
      {"smiles": "CC(COc1ccccc1)OC(=S)N(C(=O)c1cccs1)c1cccc(Cl)c1", "note": "(stereo unspecified) [(3-Chloro-phenyl)-(thiophene-2-carbonyl)-thiocarbamic acid O-(1-methyl-2-phenoxy-ethyl) ester]", "EC50": 11},
      {"smiles": "O=C1c2ccccc2C(=O)N1CCOC(=S)N(C(=O)c1cccs1)c1cccc(Cl)c1", "note": "[(3-Chloro-phenyl)-(thiophene-2-carbonyl)-thiocarbamic acid O-[2-(1,3-dioxo-1,3-dihydro-isoindol-2-yl)-ethyl] ester]", "EC50": 6},
      {"smiles": "O=C1c2ccccc2C(=O)N1CCOC(=S)N(C(=O)c1cccs1)c1cccc(F)c1", "note": "[(3-Fluoro-phenyl)-(thiophene-2-carbonyl)-thiocarbamic acid O-[2-(1,3-dioxo-1,3-dihydro-isoindol-2-yl)-ethyl] ester]", "EC50": 11},
      {"smiles": "COc1cccc(N(C(=O)c2cccs2)C(=S)OCCN2C(=O)c3ccccc3C2=O)c1", "note": "[(3-Methoxy-phenyl)-(thiophene-2-carbonyl)-thiocarbamic acid O-[2-(1,3-dioxo-1,3-dihydro-isoindol-2-yl)-ethyl] ester]", "EC50": 3.5},
      {"smiles": "CC(COc1ccccc1)OC(=S)N(C(=O)c1cccc([N+](=O)[O-])c1)c1ccccc1", "note": "(stereo unspecified) [(3-Nitro-benzoyl)-phenyl-thiocarbamic acid O-(1-methyl-2-phenoxy-ethyl) ester]", "EC50": 3.6},
      {"smiles": "O=C1c2ccccc2C(=O)N1CCOC(=S)N(C(=O)c1cccs1)c1cccc([N+](=O)[O-])c1", "note": "[(3-Nitro-phenyl)-(thiophene-2-carbonyl)-thiocarbamic acid O-[2-(1,3-dioxo-1,3-dihydro-isoindol-2-yl)-ethyl] ester]", "EC50": 0.38},
      {"smiles": "O=C(c1ccc(Cl)c([N+](=O)[O-])c1)N(C(=S)OCCOc1ccccc1)c1ccccc1", "note": "[(4-Chloro-3-nitro-benzoyl)-phenyl-thiocarbamic acid O-(2-phenoxy-ethyl) ester]", "EC50": 7.6}
    ]}
  ]
}
